# Reference: US11473145B2, “Methods for determining whether a patient suffering from rhabdomyolysis achieves a response with a TLR9 antagonist” (INSERM (INSTITUT NATIONAL DE LA SANTÉ ET DE LA RECHERCHE …, priority 2017, dated 2022)
# “Also recorded” adds a separate entry of the source.
# How the values were obtained:
# Assay type in all cases: in vivo, human
# [1] = test system: patients with lipin-1 disease; assay: Self-assessment pain scale (EVA)
# Description: (§1) We treated in 2016 two patients (P1, P2) with lipin-1 disease by hydroxychloroquine sulphate (plaquenil®) and two patients (P3, P4) with dantrolene sodium after obtaining the authorization by the CPP of Paris Descarte University (Comité pour la protection des personnes). Moreover the patient (P5) has been treated for one month by plaquenil® because of their cardiac dysfunction, their fatigability and their sleep disorders. Indeed we think that plaquenil® works well on the two patients treated (P1, P2) and P5's state was considered sufficiently serious to propose it. Plaquenil® was given at a dose of 6 mg/Kg/day into 1 intake (dose usually given in Lupus disease) to P1, P2 and P5.
# (§2) Patient 1 corrected their clinical muscle phenotype (Table 1). Physical maximum capacities were measured using six-minute walk (TC6′), Short-Form life quality by using Questionary (SF-36) to assess QOL for parent and for patient, and a self-assessment pain scale (EVA). […] Since then they have resumed treatment.
# Creatine kinase (CK) = assay: Serum Creatine kinase (CK) level
# Description: as §1
# (§3) Both patients 1 and 2 treated in vivo with Plaquenil® normalized their serum inflammatory profile in one month after the start of treatment (FIG. 1). IL-6 secretion increased in plasma when the two patients stopped their treatment (FIG. 1). The accumulation of mtDNA in plasma of the two patients before treatment decreases under treatment by Plaquenil® (FIG. 2). After Plaquenil® was stopped, the accumulation of mtDNA reappeared, then normalized when treatment was resumed. We observe a correlation between variations of IL-6 and mtDNA accumulation levels, and with the compliance of the treatment.
# as §2
# [2] = test system: patients with lipin-1 disease; assay: Six-minute walk test (physical maximum capacities) in patients treated by Plaquenil
# Description: as §1, §2
# [3] = test system: patients with lipin-1 disease; assay: Life quality questionnary PESDQL parent
# Description: as §1, §2
# [4] = test system: mitochondrial DNA (mtDNA); assay: Quantity of mitochondrial DNA (qPCR) in plasma; settings: two patients (P1, P2)
# Description: FIG. 2. Quantity of mitochondrial DNA (qPCR) in plasma of two patients.
# as §1, §3
# [5] = test system: patients with lipin-1 disease; assay: Life quality questionnary PESDQL children
# Description: as §1, §2
# IL-6 = IL-6 secretion in serum measured by ELISA (serum inflammatory profile); settings: for IL-6 concentration in serum: lipin-1 deficient patients
# Experimental: FIG. 1. Inflammatory profile in serum of lipin-1 deficient patients in vivo. Above: IL-6 secretion in serum was measured by ELISA.
# as §1, §3
# [6] = test system: patients with lipin-1 disease; assay: Clinical follow-up: rhabdomyolysis episodes, muscle phenotype and muscle pain
# Description: as §1, §3, §2
# [7] = the two patients, treatment resumed, winter 2016-2017
compound,measurement,setting,value
"CCN(CCO)CCCC(C)Nc1ccnc2cc(Cl)ccc12 (stereo not shown) [Plaquenil®, hydroxychloroquine sulphate]",Pain Evaluation (EVA) (4: not painful - 40: very painful),"[1]; patient P1, M 2 of treatment, M 0 before treatment 24",P1: 16
same,Pain Evaluation (EVA) (4: not painful - 40: very painful),"[1]; patient P1, M 5 of treatment, M 0 24",P1: 0
same,Pain Evaluation (EVA) (4: not painful - 40: very painful),"[1]; patient P1, M 9, after M 6-M 8 interruption of treatment, M 0 24",P1: 4
same,Pain Evaluation (EVA) (4: not painful - 40: very painful),"[1]; patient P1, M 16, treatment resumed, M 0 24",P1: 0
same,Pain Evaluation (EVA) (4: not painful - 40: very painful),"[1]; patient P2, M 2 of treatment, M 0 before treatment 18",P2: 12
same,Pain Evaluation (EVA) (4: not painful - 40: very painful),"[1]; patient P2, M 5 of treatment, M 0 18",P2: 0
same,Pain Evaluation (EVA) (4: not painful - 40: very painful),"[1]; patient P2, M 9, after M 6-M 8 interruption of treatment, M 0 18",P2: 16
same,Pain Evaluation (EVA) (4: not painful - 40: very painful),"[1]; patient P2, M 16, treatment resumed, M 0 18",P2: 0
same,CK,"Creatine kinase (CK); patient 1, rhabdomyolysis after treatment was stopped",160 000 U/L
same,CK,"Creatine kinase (CK); patient 2, rhabdomyolysis after treatment was stopped",300 000 U/L
same,level of serum Creatine kinase (CK),"Creatine kinase (CK); patients 1 and 2, under treatment",decreased
same,Six-minute walk test (normal 560-740),"[2]; patient P1, M 2 of treatment, 6 mg/Kg/day, M 0 before treatment 450 m",P1: 540 m
same,Six-minute walk test (normal 560-740),"[2]; patient P1, M 5 of treatment, M 0 450 m",P1: 520 m
same,Six-minute walk test (normal 560-740),"[2]; patient P1, M 9, after M 6-M 8 interruption of treatment, M 0 450 m",P1: 539 m
same,Six-minute walk test (normal 560-740),"[2]; patient P1, M 16, treatment resumed, M 0 450 m",P1: 530
same,Six-minute walk test (normal 560-740),"[2]; patient P2, M 2 of treatment, 6 mg/Kg/day, M 0 before treatment 510 m",P2: 550 m
same,Six-minute walk test (normal 560-740),"[2]; patient P2, M 5 of treatment, M 0 510 m",P2: 595 m
same,Six-minute walk test (normal 560-740),"[2]; patient P2, M 9, after M 6-M 8 interruption of treatment, M 0 510 m",P2: 587 m
same,Six-minute walk test (normal 560-740),"[2]; patient P2, M 16, treatment resumed, M 0 510 m",P2: 590
same,Questionnary PESDQL parent (0: very well - 92: very bad),"[3]; patient P1, M 2 of treatment, M 0 before treatment 30",P1: 22
same,Questionnary PESDQL parent (0: very well - 92: very bad),"[3]; patient P1, M 5 of treatment, M 0 30",P1: 12
same,Questionnary PESDQL parent (0: very well - 92: very bad),"[3]; patient P1, M 9, after M 6-M 8 interruption of treatment, M 0 30",P1: 31
same,Questionnary PESDQL parent (0: very well - 92: very bad),"[3]; patient P1, M 16, treatment resumed, M 0 30",P1: 20
same,Questionnary PESDQL parent (0: very well - 92: very bad),"[3]; patient P2, M 2 of treatment, M 0 before treatment 40",P2: 42
same,Questionnary PESDQL parent (0: very well - 92: very bad),"[3]; patient P2, M 5 of treatment, M 0 40",P2: 33
same,Questionnary PESDQL parent (0: very well - 92: very bad),"[3]; patient P2, M 9, after M 6-M 8 interruption of treatment, M 0 40",P2: 50
same,Questionnary PESDQL parent (0: very well - 92: very bad),"[3]; patient P2, M 16, treatment resumed, M 0 40",P2: 35
same,accumulation of mtDNA in plasma,[4]; after treatment was stopped,reappeared; also recorded: increases
same,accumulation of mtDNA in plasma,[4]; under treatment versus before treatment,decreases
same,accumulation of mtDNA in plasma,[4]; when treatment was resumed,normalized; also recorded: decreases again
same,Questionnary (0: very well - 92: very bad) PESDQL children,"[5]; patient P1, M 2 of treatment, M 0 before treatment 26",P1: 12
same,Questionnary (0: very well - 92: very bad) PESDQL children,"[5]; patient P1, M 5 of treatment, M 0 26",P1: 11
same,Questionnary (0: very well - 92: very bad) PESDQL children,"[5]; patient P1, M 9, after M 6-M 8 interruption of treatment, M 0 26",P1: 38
same,Questionnary (0: very well - 92: very bad) PESDQL children,"[5]; patient P1, M 16, treatment resumed, M 0 26",P1: 8
same,Questionnary (0: very well - 92: very bad) PESDQL children,"[5]; patient P2, M 2 of treatment, M 0 before treatment 45",P2: 32
same,Questionnary (0: very well - 92: very bad) PESDQL children,"[5]; patient P2, M 5 of treatment, M 0 45",P2: 35
same,Questionnary (0: very well - 92: very bad) PESDQL children,"[5]; patient P2, M 9, after M 6-M 8 interruption of treatment, M 0 45",P2: 47
same,Questionnary (0: very well - 92: very bad) PESDQL children,"[5]; patient P2, M 16, treatment resumed, M 0 45",P2: 30
same,IL-6 concentration in serum,IL-6; under treatment,decreases
same,IL-6 concentration in serum,IL-6; when the treatment is resumed,decreases again
same,serum inflammatory profile,"IL-6; patients 1 and 2, one month after the start of treatment, 6 mg/Kg/day",normalized
same,IL-6 secretion (serum/plasma),"IL-6; the two patients, after interruption of treatment",increased
same,clinical muscle phenotype,"[6]; Patient 1, under treatment",corrected
same,pain,"[6]; patient 2, under treatment",disappeared
same,walking ability,"[6]; patient 2, under treatment",did not improve markedly
same,new episode of rhabdomyolysis,"[6]; patients 1 and 2, during 6 months of treatment",did not have any new episode of rhabdomyolysis
same,muscle pain,[6]; [7],did not have muscle pain
same,rhabdomyolysis,[6]; [7],did not do rhabdomyolysis
same,rhabdomyolysis after stopping treatment,"[6]; the two patients, treatment stopped after 6 months (lack of compliance), hospitalized in intensive care",immediately underwent extensive rhabdomyolysis
